Measurements reported in ChEMBL document CHEMBL3751663, “Design and Synthesis of a Focused Library of Diamino Triazines as Potential Mycobacterium tuberculosis DHFR Inhibitors” (ACS Med Chem Lett, 2015).
Converted amounts (≈) assume the structure as drawn.

Columns and labels:
Staphylococcus aureus = assay: Antimicrobial activity against Staphylococcus aureus; type: functional
HepG2 = assay: Cytotoxicity against human HepG2 cells by SRB assay; type: cell-based
[1] = system: Mycobacterium tuberculosis; assay: Antimycobacterium activity against Mycobacterium tuberculosis H37Ra at dormant stage at 10 ug/ml; type: functional
A549 = assay: Cytotoxicity against human A549 cells; type: cell-based
Escherichia coli = assay: Antimicrobial activity against Escherichia coli; type: functional
[2] = system: Mycobacterium tuberculosis; assay: microbe, parasite or virus in culture; conditions: H37Rv, 48 h
Description: Antimycobacterium activity against Mycobacterium tuberculosis H37Rv after 48 hrs by Resazurin microtiter assay

Dihydrofolate reductase [3] = target: T1, Dihydrofolate reductase (Homo sapiens, UniProt P00374); assay: Inhibition of human DHFR using 45 uM DHF as substrate by spectrophotometry
T1 sequence (P00374 whole entry): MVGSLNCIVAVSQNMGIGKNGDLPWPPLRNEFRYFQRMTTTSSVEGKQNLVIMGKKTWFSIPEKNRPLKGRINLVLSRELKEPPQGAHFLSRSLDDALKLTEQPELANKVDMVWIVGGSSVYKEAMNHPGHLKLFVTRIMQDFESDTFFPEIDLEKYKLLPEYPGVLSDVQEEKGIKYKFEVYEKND

Dihydrofolate reductase [4] = target: T2, Dihydrofolate reductase (Mycobacterium tuberculosis, UniProt P9WNX1); assay: Inhibition of recombinant Mycobacterium tuberculosis DHFR using 45 uM DHF as substrate by spectrophotometry
T2 sequence (P9WNX1 whole entry): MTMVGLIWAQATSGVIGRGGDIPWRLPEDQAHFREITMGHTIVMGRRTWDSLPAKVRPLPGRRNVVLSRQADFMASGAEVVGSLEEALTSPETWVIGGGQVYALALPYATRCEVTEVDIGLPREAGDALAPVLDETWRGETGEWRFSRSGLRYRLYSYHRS

Row | Structure (SMILES) | MIC (Staphylococcus aureus) | Activity (HepG2) | inhibition at 10 µg/mL [1] | Activity (A549) | MIC (Escherichia coli) | MIC [2] | IC50 (Dihydrofolate reductase [3]) | IC50 (Dihydrofolate reductase [4])
1 | Nc1nc(N)nc(-c2ccc(Oc3ccc(F)cc3)cc2)n1 | 420 µM (≈ 125 µg/mL) | Non-toxic | 4.98% | Non-toxic | 420 µM (≈ 125 µg/mL) | > 420 µM |  | 
2 | COc1ccc(Oc2ccc(-c3nc(N)nc(N)n3)cc2)cc1 | 404 µM (≈ 125 µg/mL) | Non-toxic | 37.5% | Non-toxic | 404 µM (≈ 125 µg/mL) | > 396 µM |  | 
3 | CC(C)(C)c1ccc(Oc2ccc(-c3nc(N)nc(N)n3)cc2)cc1 | 373 µM (≈ 125 µg/mL) | Non-toxic | 42.2% | Non-toxic | 373 µM (≈ 125 µg/mL) | > 380 µM |  | 
4 | Nc1nc(N)nc(-c2ccc(Oc3ccc(Cl)cc3)cc2)n1 | 398 µM (≈ 125 µg/mL) | Non-toxic | 81.1% | Non-toxic | 398 µM (≈ 125 µg/mL) | > 398 µM |  | 
5 | Cc1ccc(Oc2ccc(-c3nc(N)nc(N)n3)cc2)cc1 | 426 µM (≈ 125 µg/mL) | Non-toxic |  | Non-toxic | 426 µM (≈ 125 µg/mL) | > 418 µM |  | 
6 | Cc1cccc(Oc2ccc(-c3nc(N)nc(N)n3)cc2)c1C | 407 µM (≈ 125 µg/mL) | Non-toxic | 16.1% | Non-toxic | 407 µM (≈ 125 µg/mL) | 0.325 µM (≈ 0.0999 µg/mL) | 42 µM | 25.9 µM
7 | Nc1nc(N)nc(-c2ccc(Oc3ccc(Cl)cc3Cl)cc2)n1 | 359 µM (≈ 125 µg/mL) | Non-toxic | 93.6% | Non-toxic | 359 µM (≈ 125 µg/mL) | 3.59 µM (≈ 1.25 µg/mL) |  | 
8 | Cc1cc(Oc2ccc(-c3nc(N)nc(N)n3)cc2)ccc1Cl | 381 µM (≈ 125 µg/mL) | Non-toxic | 7.27% | Non-toxic | 381 µM (≈ 125 µg/mL) | > 381 µM |  | 
9 | Cc1cc(Oc2ccc(-c3nc(N)nc(N)n3)cc2)cc(C)c1Cl | 366 µM (≈ 125 µg/mL) | Non-toxic | 14.5% | Non-toxic | 366 µM (≈ 125 µg/mL) | > 369 µM |  | 
10 | Nc1nc(N)nc(-c2ccc(Oc3ccc(Br)cc3)cc2)n1 | 349 µM (≈ 125 µg/mL) | Non-toxic | 83% | Non-toxic | 349 µM (≈ 125 µg/mL) | 3.56 µM (≈ 1.28 µg/mL) |  | 
11 | Nc1nc(N)nc(-c2ccc(Sc3ccccc3)cc2)n1 | 423 µM (≈ 125 µg/mL) | Non-toxic | 11.7% | Non-toxic | 423 µM (≈ 125 µg/mL) | 212 µM (≈ 62.5 µg/mL) |  | 
12 | Cc1cccc(C)c1Oc1ccc(-c2nc(N)nc(N)n2)cc1 | 407 µM (≈ 125 µg/mL) | Non-toxic | 96.9% | Non-toxic | 407 µM (≈ 125 µg/mL) | 20.3 µM (≈ 6.25 µg/mL) |  | 
13 | COc1cc(Cc2cnc(N)nc2N)cc(OC)c1OC [TRIMETHOPRIM] |  |  |  |  |  | 28.9 µM (≈ 8.4 µg/mL) |  | 
14 | Cc1cc(Cl)ccc1Oc1ccc(-c2nc(N)nc(N)n2)cc1 | 381 µM (≈ 125 µg/mL) | Non-toxic | 87.2% | Non-toxic | 381 µM (≈ 125 µg/mL) | 1.96 µM (≈ 0.642 µg/mL) |  | 
15 | Nc1nc(N)nc(-c2ccc(Oc3ccccc3Cl)cc2)n1 | 398 µM (≈ 125 µg/mL) | Non-toxic | 27.6% | Non-toxic | 398 µM (≈ 125 µg/mL) | 20.7 µM (≈ 6.5 µg/mL) |  | 
16 | Cc1cccc(Oc2ccc(-c3nc(N)nc(N)n3)cc2)c1 | 426 µM (≈ 125 µg/mL) | Non-toxic | 15% | Non-toxic | 426 µM (≈ 125 µg/mL) | > 447 µM |  | 
17 | Nc1nc(N)nc(-c2ccc(Oc3ccccc3)cc2)n1 | 448 µM (≈ 125 µg/mL) | Non-toxic | 19.4% | Non-toxic | 448 µM (≈ 125 µg/mL) | 110 µM (≈ 30.6 µg/mL) |  | 
18 | NNC(=O)c1ccncc1 [ISONIAZID] |  |  |  |  |  | 0.73 µM (≈ 0.1 µg/mL) |  | 
19 | CN(Cc1cnc2nc(N)nc(N)c2n1)c1ccc(C(=O)N[C@@H](CCC(=O)O)C(=O)O)cc1 [METHOTREXATE] |  |  |  |  |  | 0.968 µM (≈ 0.44 µg/mL) |  | 
